Reference: ChEMBL document CHEMBL1154275, “Synthesis and biological evaluation of new heterocyclic quinolinones as anti-parasite and anti-HIV drug candidates” (Bioorg Med Chem Lett, 2009)

How the values were obtained:
[1] = Selectivity index, ratio of IC50 for human THP1 cells to IC50 for Plasmodium falciparum; format: toxicity, cell-based, THP-1
Leishmania donovani [2] = test: Antileishmanial activity against Leishmania donovani MHOM/IN/78/80/DD8 promastigote by alamar blue method; format: functional, organism-based
Plasmodium falciparum = test: Antimalarial activity against chloroquine, pyrimethamine, proguanil-resistant Plasmodium falciparum infected in human erythrocytes after 48 hrs by flow cytometry; format: functional, organism-based
Leishmania donovani [3] = test: Antileishmanial activity against Leishmania donovani MHOM/IN/78/80/DD8 amastigote by alamar blue method; format: functional, organism-based
THP-1 = test: Cytotoxicity against human THP1 cells after 72 hrs by propidium iodide staining-based flow cytometry; format: cell-based
[4] = system: Human immunodeficiency virus 2; test: Antiviral activity against HIV2 ROD infected in human MT4 cells after 4 days by MTT assay; format: functional, organism-based, ISOLATE ROD
[5] = system: Human immunodeficiency virus 1; test: Antiviral activity against HIV1 3B infected in human MT4 cells after 4 days by MTT assay; format: functional, organism-based
MT4 = test: (§1) Cytotoxicity against human MT4 cells after 4 days by MTT assay; format: cell-based; details: mt4, 96 h
Trichomonas vaginalis = test: Antitrichomonal activity against Trichomonas vaginalis TVR79 after 48 hrs by optical microscopy; format: functional, organism-based
[6] = as §1; format: cell-based; details: MT4 cells
[7] = Leishmania donovani, MHOM/IN/78/80/DD8, read-out: IC50
[8] = Plasmodium falciparum, 48 h, read-out: IC50
[9] = Homo sapiens, THP-1, 72 h, read-out: IC50
[10] = Human immunodeficiency virus 2, ISOLATE ROD, MT4, 96 h, read-out: EC50
[11] = Human immunodeficiency virus 1, 3B, MT4, 96 h, read-out: EC50
[12] = Trichomonas vaginalis, TVR79, 48 h, read-out: IC50

Structure (SMILES) | selectivity index ([1]; thp-1) | IC50 (Leishmania donovani [2]) | IC50 (Plasmodium falciparum) | IC50 (Leishmania donovani [3]) | IC50 (THP-1; thp-1) | EC50 ([4]; mt4) | EC50 ([5]; mt4) | CC50 (MT4) | IC50 (Trichomonas vaginalis) | selectivity index ([1]; human, THP-1 cells) | IC50 (Leishmania donovani [2]; [7]) | IC50 (Plasmodium falciparum; [8]) | IC50 (Leishmania donovani [3]; [7]) | IC50 (THP-1; [9]) | EC50 [4, 10] | EC50 [5, 11] | CC50 at 96 h [6] | IC50 (Trichomonas vaginalis; [12])
O=c1cc[nH]c2ccc3[nH]ncc3c12 | ND(Insoluble) | ND(Insoluble) | ND(Insoluble) | ND(Insoluble) | ND(Insoluble) | ND(Insoluble) | ND(Insoluble) | ND(Insoluble) | ND(Insoluble) | – | – | – | – | – | – | – | – | –
CN(C)c1nc2cc3[nH]ccc(=O)c3cc2o1 | – | – | – | – | – | – | – | – | – | > 3.1 | > 250 µM | 40 µM | > 100 µM | > 125 µM | > 324 µM | > 324 µM | > 324 µM | > 125 µM
CC1(C)OC(=O)C(=CNc2ccccc2-c2nc3ccccc3s2)C(=O)O1 | Not Active | – | – | – | – | – | – | – | – | – | > 250 µM | > 250 µM | > 100 µM | > 250 µM | > 41.6 µM | > 41.6 µM | 41.6 µM | > 250 µM
Cc1nc2ccc3c(c(=O)ccn3C)c2s1 | Not Active | – | – | – | – | – | – | – | – | – | > 100 µM | > 250 µM | > 100 µM | 115 µM | > 341 µM | > 341 µM | > 341 µM | > 100 µM
CC1(C)OC(=O)C(CNc2ccc3c(c2)CCC3)C(=O)O1 | Not Active | – | – | – | – | – | – | – | – | – | > 200 µM | > 500 µM | > 200 µM | > 500 µM | > 292 µM | > 292 µM | > 292 µM | > 200 µM
CC1(C)OC(=O)C(=CNc2ccc3ncsc3c2)C(=O)O1 | – | – | – | – | – | – | – | – | – | > 8.3 | > 200 µM | 60 µM | 40 µM | > 500 µM | > 39.1 µM | > 39.1 µM | > 39.1 µM | > 200 µM
Cc1nc2ccc(NC=C3C(=O)OC(C)(C)OC3=O)cc2s1 | – | – | – | – | – | – | – | – | – | > 4.1 | > 250 µM | 60 µM | > 200 µM | > 250 µM | > 317 µM | > 317 µM | > 317 µM | > 100 µM
CC1(C)OC(=O)C(=CNc2ccc3[nH]nnc3c2)C(=O)O1 | Not Active | – | – | – | – | – | – | – | – | – | > 200 µM | > 500 µM | > 200 µM | > 500 µM | > 68.1 µM | > 68.1 µM | > 68.1 µM | > 200 µM
CC1(C)OC(=O)C(=CNc2ccc([N+](=O)[O-])cc2)C(=O)O1 | – | – | – | – | – | – | – | – | – | > 6.2 | > 100 µM | 40 µM | > 100 µM | > 250 µM | > 21.2 µM | > 21.2 µM | > 21.2 µM | > 100 µM
Cc1nc2ccc3[nH]ccc(=O)c3c2s1 | – | – | – | – | – | – | – | – | – | – | > 200 µM | – | > 200 µM | > 500 µM | > 405 µM | > 405 µM | > 405 µM | > 200 µM
O=c1cc[nH]c2c([N+](=O)[O-])cccc12 | Not Active | – | – | – | – | – | – | – | – | – | > 200 µM | > 500 µM | > 200 µM | > 500 µM | > 71.6 µM | > 71.6 µM | > 71.6 µM | > 200 µM
C[C@H]1c2cccc(O)c2C(=O)C2=C(O)[C@]3(O)C(=O)C(C(N)=O)=C(O)[C@@H](N(C)C)[C@@H]3[C@@H](O)[C@@H]21 [DOXYCYCLINE] | – | – | – | – | – | – | – | – | – | 3.1 | – | – | – | 20 µM | – | – | – | –
CN(C)c1nc2ccc(NC=C3C(=O)OC(C)(C)OC3=O)cc2o1 | – | – | – | – | – | – | – | – | – | > 6.25 | > 100 µM | 40 µM | > 100 µM | > 250 µM | > 378 µM | > 378 µM | > 378 µM | > 100 µM
CC1(C)OC(=O)C(=CNc2ccc3[nH]c(=O)[nH]c3c2)C(=O)O1 | Not Active | – | – | – | – | – | – | – | – | – | > 200 µM | > 500 µM | > 200 µM | > 500 µM | > 412 µM | > 412 µM | > 412 µM | > 200 µM
CC1(C)OC(=O)C(=CNc2ccc3c(c2)OCCO3)C(=O)O1 | Not Active | – | – | – | – | – | – | – | – | – | > 200 µM | > 500 µM | > 200 µM | > 500 µM | > 428 µM | > 428 µM | > 428 µM | > 200 µM
CC1(C)OC(=O)C(=CNc2ccc3cn[nH]c3c2)C(=O)O1 | Not Active | – | – | – | – | – | – | – | – | – | > 100 µM | > 250 µM | > 100 µM | > 250 µM | > 436 µM | > 436 µM | > 436 µM | > 100 µM
O=c1cc[nH]c2c(-c3nc4ccccc4s3)cccc12 | Not Active | – | – | – | – | – | – | – | – | – | > 200 µM | > 500 µM | > 200 µM | > 500 µM | ≥ 1.4 µM | > 8.6 µM | 8.6 µM | > 200 µM
CC1(C)OC(=O)C(=CNc2cccc([N+](=O)[O-])c2)C(=O)O1 | – | – | – | – | – | – | – | – | – | > 4.1 | > 100 µM | 60 µM | > 100 µM | > 250 µM | > 251 µM | > 251 µM | > 251 µM | > 100 µM
O=c1cc[nH]c2ccc3nn[nH]c3c12 | ND(Insoluble) | ND(Insoluble) | ND(Insoluble) | ND(Insoluble) | ND(Insoluble) | ND(Insoluble) | ND(Insoluble) | ND(Insoluble) | ND(Insoluble) | – | – | – | – | – | – | – | – | –
CC1(C)OC(=O)C(=CNc2ccc3c(c2)OCO3)C(=O)O1 | – | – | – | – | – | – | – | – | – | 25 | > 100 µM | 10 µM | 20 µM | 250 µM | > 430 µM | ≥ 118 µM | > 430 µM | > 100 µM
O=c1cc[nH]c2cc3c(cc12)OCCO3 | – | – | – | – | – | – | – | – | – | 2.3 | > 200 µM | 50 µM | > 200 µM | 115 µM | > 356 µM | > 356 µM | > 356 µM | > 200 µM
C[C@@H]1[C@H](O)[C@@H](C)/C=C/C=C/C=C/C=C/C=C/C=C/C=C/[C@H](O[C@@H]2O[C@H](C)[C@@H](O)[C@H](N)[C@@H]2O)C[C@@H]2O[C@](O)(C[C@@H](O)C[C@@H](O)[C@H](O)CC[C@@H](O)C[C@@H](O)CC(=O)O[C@H]1C)C[C@H](O)[C@H]2C(=O)O [AMPHOTERICIN B] | – | – | – | – | – | – | – | – | – | – | – | – | 0.1 µM | – | – | – | – | –
CCOC(=O)C(=CNc1ccc([N+](=O)[O-])cc1)C(=O)OCC | Not Active | – | – | – | – | – | – | – | – | – | > 250 µM | > 250 µM | > 100 µM | > 125 µM | ≥ 121 µM | ≥ 198 µM | ≥ 250 µM | > 125 µM
CC1(C)OC(=O)C(=CNc2cccc(-c3nc4ccccc4s3)c2)C(=O)O1 | – | – | – | – | – | – | – | – | – | 4 | > 200 µM | 30 µM | > 200 µM | 115 µM | > 190 µM | > 190 µM | > 190 µM | > 200 µM
Nc1ccc2[nH]ccc(=O)c2c1 | – | – | – | – | – | – | – | – | – | > 5.5 | > 200 µM | 90 µM | > 200 µM | > 500 µM | ≥ 501 µM | > 631 µM | ≥ 631 µM | > 200 µM
CC1(C)OC(=O)C(=CNc2ccccc2[N+](=O)[O-])C(=O)O1 | Not Active | – | – | – | – | – | – | – | – | – | > 200 µM | > 500 µM | > 200 µM | > 500 µM | ≥ 260 µM | > 411 µM | ≥ 411 µM | > 200 µM
O=c1cc[nH]c2ccc3ncsc3c12 | ND(Insoluble) | ND(Insoluble) | ND(Insoluble) | ND(Insoluble) | ND(Insoluble) | ND(Insoluble) | ND(Insoluble) | ND(Insoluble) | ND(Insoluble) | – | – | – | – | – | – | – | – | –
Cc1ncc([N+](=O)[O-])n1CCO [METRONIDAZOLE] | – | – | – | – | – | – | – | – | – | – | – | – | – | > 500 µM | – | – | – | 2.7 µM
O=c1cc[nH]c2ccc([N+](=O)[O-])cc12 | – | – | – | – | – | – | – | – | – | 2.5 | > 200 µM | 52 µM | > 200 µM | 130 µM | > 356 µM | > 356 µM | > 356 µM | > 200 µM
